From ChEMBL document CHEMBL5625226, “Synthesis, computational and experimental pharmacological studies for (thio)ether-triazine 5-HT6R ligands with noticeable action on AChE/BChE and chalcogen-dependent intrinsic activity in search for new class of drugs against Alzheimer's disease” (Eur J Med Chem, 2023)

Assays:
Cholinesterase = Cholinesterase (Equus caballus, UniProt P81908)
Description: Inhibition of equine serum BChE using butyrylthiocholine iodide as substrate preincubated for 20 mins followed by substrate addition and measured after 5 mins by Ellman's method

[1] = biological target: 5-hydroxytryptamine receptor 7 (Homo sapiens, UniProt P34969); experiment: biochemical
[2] = biological target: 5-hydroxytryptamine receptor 2A (Homo sapiens, UniProt P28223); experiment: biochemical
[3] = biological target: T1, 5-hydroxytryptamine receptor 6 (Homo sapiens, UniProt P50406); experiment: biochemical
D(2) dopamine receptor = D(2) dopamine receptor (Homo sapiens, UniProt P14416); experiment: biochemical
Acetylcholinesterase = Acetylcholinesterase (Electrophorus electricus, UniProt O42275)
Description: Inhibition of electric eel AChE using acetylthiocholine iodide as substrate preincubated with compounds for 20 mins followed by substrate addition and measured after 5 mins by Ellman's method

SH-SY5Y = experiment: cells; settings: Homo sapiens, 1 h
Description: Neuroprotective activity against H202 induced oxidative stress in human SH-SY5Y cells measured after 1 hr by DCFH-DA staining based analysis

HepG2 = experiment: cells; settings: Homo sapiens, HepG2, 1 h
Description: Neuroprotective activity against H202 induced oxidative stress in human HepG2 cells measured after 1 hr by DCFH-DA staining based analysis

cells = settings: Rattus norvegicus, Whole blood cell, 0.05 h
Description: Antiplatelet activity against rat whole blood assessed as inhibition of collagen induced platelet aggregation measured after 3 mins

[4] = biological target: T1, 5-hydroxytryptamine receptor 6; settings: 1321N1, filed as antagonist, dose 10.0 mM, time 30.0 min

Sequence of D(2) dopamine receptor (P14416 whole entry): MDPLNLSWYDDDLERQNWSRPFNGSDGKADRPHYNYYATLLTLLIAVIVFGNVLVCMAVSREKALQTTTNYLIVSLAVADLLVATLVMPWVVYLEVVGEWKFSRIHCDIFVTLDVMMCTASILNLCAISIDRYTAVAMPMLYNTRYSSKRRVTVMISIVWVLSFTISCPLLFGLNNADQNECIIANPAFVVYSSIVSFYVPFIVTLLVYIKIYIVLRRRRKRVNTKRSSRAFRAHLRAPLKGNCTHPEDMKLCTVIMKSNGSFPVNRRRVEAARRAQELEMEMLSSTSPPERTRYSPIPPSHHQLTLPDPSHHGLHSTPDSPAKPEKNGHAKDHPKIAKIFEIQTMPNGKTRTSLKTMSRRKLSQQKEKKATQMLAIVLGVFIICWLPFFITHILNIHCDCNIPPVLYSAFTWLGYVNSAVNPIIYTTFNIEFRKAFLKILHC
T1 sequence (P50406 whole entry): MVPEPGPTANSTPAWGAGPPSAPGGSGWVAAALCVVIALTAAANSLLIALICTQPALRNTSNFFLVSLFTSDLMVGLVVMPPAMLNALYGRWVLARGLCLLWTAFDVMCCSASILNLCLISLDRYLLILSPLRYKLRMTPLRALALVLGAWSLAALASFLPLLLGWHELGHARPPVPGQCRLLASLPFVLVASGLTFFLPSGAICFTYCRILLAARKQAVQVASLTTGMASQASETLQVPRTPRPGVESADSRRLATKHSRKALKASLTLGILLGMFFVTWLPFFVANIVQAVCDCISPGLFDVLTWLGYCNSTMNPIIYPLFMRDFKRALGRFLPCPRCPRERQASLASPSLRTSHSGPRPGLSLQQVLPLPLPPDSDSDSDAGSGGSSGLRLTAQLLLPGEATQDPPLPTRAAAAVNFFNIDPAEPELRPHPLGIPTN
Sequence of 5-hydroxytryptamine receptor 7 (P34969 whole entry): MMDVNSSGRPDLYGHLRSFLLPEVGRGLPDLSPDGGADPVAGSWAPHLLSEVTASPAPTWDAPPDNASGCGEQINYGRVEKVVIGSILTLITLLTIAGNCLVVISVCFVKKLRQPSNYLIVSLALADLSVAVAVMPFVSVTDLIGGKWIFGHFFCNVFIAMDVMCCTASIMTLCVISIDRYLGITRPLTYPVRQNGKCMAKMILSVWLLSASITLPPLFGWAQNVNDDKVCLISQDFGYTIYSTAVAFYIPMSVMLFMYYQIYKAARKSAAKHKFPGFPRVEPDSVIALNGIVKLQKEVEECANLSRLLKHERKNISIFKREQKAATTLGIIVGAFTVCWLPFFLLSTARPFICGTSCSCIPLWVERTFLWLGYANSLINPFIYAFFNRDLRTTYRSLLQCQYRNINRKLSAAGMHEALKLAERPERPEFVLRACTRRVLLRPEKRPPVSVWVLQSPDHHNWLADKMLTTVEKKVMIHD
Sequence of Acetylcholinesterase (O42275 whole entry): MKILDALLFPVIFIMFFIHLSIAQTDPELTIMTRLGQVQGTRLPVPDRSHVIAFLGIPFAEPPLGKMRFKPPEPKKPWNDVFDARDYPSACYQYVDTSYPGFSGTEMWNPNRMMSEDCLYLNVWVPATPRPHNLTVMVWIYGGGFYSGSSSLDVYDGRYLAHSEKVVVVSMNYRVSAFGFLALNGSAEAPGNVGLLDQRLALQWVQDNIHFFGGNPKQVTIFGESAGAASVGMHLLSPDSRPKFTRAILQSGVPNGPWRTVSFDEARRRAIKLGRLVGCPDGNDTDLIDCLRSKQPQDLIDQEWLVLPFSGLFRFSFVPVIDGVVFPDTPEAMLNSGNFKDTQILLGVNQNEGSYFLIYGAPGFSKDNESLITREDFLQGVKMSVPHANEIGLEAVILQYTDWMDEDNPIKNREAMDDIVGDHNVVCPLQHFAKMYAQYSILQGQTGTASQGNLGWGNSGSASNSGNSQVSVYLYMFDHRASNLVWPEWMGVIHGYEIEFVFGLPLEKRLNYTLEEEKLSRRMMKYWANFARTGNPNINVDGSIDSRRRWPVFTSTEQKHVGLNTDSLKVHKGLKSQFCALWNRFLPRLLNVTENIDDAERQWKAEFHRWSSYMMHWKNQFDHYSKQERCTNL
Sequence of Cholinesterase (P81908 whole entry): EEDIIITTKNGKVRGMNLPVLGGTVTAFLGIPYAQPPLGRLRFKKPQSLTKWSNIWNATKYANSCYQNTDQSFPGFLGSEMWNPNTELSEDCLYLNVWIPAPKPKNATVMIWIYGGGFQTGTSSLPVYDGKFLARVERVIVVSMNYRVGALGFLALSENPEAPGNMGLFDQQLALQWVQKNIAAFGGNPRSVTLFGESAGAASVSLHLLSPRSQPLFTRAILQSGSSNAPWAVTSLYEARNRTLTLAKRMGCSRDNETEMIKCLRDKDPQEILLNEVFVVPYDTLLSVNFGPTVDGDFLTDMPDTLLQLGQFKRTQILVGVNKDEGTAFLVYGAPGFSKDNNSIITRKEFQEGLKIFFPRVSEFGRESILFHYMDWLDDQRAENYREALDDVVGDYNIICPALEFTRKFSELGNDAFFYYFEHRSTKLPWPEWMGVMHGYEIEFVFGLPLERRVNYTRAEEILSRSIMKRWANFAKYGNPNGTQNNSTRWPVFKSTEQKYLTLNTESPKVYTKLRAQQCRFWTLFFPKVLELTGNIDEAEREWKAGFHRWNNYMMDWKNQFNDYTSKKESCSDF
Sequence of 5-hydroxytryptamine receptor 2A (P28223 whole entry): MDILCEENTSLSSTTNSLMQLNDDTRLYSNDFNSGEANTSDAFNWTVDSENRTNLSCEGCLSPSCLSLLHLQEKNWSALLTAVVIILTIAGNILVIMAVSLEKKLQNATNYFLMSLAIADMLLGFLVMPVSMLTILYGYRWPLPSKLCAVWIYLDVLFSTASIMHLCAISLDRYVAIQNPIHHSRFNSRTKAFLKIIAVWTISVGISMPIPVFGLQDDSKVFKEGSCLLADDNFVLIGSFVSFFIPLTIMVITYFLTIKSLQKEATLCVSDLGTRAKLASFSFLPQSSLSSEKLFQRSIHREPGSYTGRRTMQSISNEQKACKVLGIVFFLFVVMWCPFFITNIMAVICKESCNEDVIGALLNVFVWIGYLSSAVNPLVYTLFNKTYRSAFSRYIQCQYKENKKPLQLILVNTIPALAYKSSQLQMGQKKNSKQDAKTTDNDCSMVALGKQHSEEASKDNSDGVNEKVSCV

Row | Ki [1] [nM] | Ki [2] [nM] | Ki [3] [nM] | Ki (D(2) dopamine receptor) [nM] | SMILES | further results
1 | 5920 | 892 | 476 | 727 | CN1CCN(c2nc(N)nc(C(C)(C)Sc3ccccc3Cl)n2)CC1 | 
2 | 2870 |  | 152 | 530 | CC(Sc1ccc(Cl)c(Cl)c1)c1nc(N)nc(N2CCN(C)CC2)n1 (racemic) | 
3 |  |  |  |  | CCC(Oc1cc(Cl)ccc1Cl)c1nc(N)nc(N2CCN(C)CC2)n1 (stereo not drawn) | IC50 (Acetylcholinesterase): 11200 nM; IC50 (SH-SY5Y): 81300 nM; IC50 (HepG2): 7400 nM
4 | 8150 | 4820 | 414 |  | CCC(Oc1ccccc1)c1nc(N)nc(N2CCNCC2)n1 (racemic) | IC50 (SH-SY5Y): 42100 nM; IC50 (HepG2): 20 nM
5 | 6210 |  | 9 | 971 | CCCC(Sc1cc(Cl)ccc1Cl)c1nc(N)nc(N2CCN(C)CC2)n1 (racemic) | 
6 |  |  |  |  | CCCCC(Oc1cccc(Cl)c1Cl)c1nc(N)nc(N2CCN(C)CC2)n1 (stereo not drawn) | IC50 (SH-SY5Y): 29900 nM; IC50 (Cholinesterase): 500 nM; IC50 (HepG2): 13200 nM
7 | 3720 | 62 |  |  | CCC(Oc1cc(Cl)ccc1Cl)c1nc(N)nc(N2CCNCC2)n1 (racemic) | 
8 | 2560 | 2150 |  | 879 | CCC(Sc1cccc(Cl)c1Cl)c1nc(N)nc(N2CCN(C)CC2)n1 (racemic) | 
9 |  |  |  |  | CC(=O)Oc1ccccc1C(=O)O [ASPIRIN] | IC50 (cells): 17400 nM
10 | 3320 | 115 |  |  | CCC(Sc1cccc(Cl)c1Cl)c1nc(N)nc(N2CCNCC2)n1 (racemic) | 
11 | 5670 | 188 |  |  | CCC(Sc1cc(Cl)ccc1Cl)c1nc(N)nc(N2CCNCC2)n1 (racemic) | 
12 | 5630 | 573 | 79 | 797 | CN1CCN(c2nc(N)nc(C(C)(C)Oc3ccccc3Cl)n2)CC1 | 
13 |  |  |  |  | CC(Oc1cc(Cl)cc(Cl)c1)c1nc(N)nc(N2CCN(C)CC2)n1 (stereo not drawn) | IC50 (Acetylcholinesterase): 3950 nM
14 |  |  |  |  | CC(Oc1ccc(Cl)c(Cl)c1)c1nc(N)nc(N2CCN(C)CC2)n1 (stereo not drawn) | IC50 (Acetylcholinesterase): 9520 nM
15 |  |  |  |  | COc1ccc(NS(=O)(=O)c2ccc(I)cc2)cc1N1CCN(C)CC1 | Emax [4]: 100%
16 | 8630 | 500 | 74 | 663 | CCCC(Sc1cc(Cl)cc(Cl)c1)c1nc(N)nc(N2CCN(C)CC2)n1 (racemic) | 
17 | 2470 | 427 | 127 | 7270 | CCC(Sc1ccccc1)c1nc(N)nc(N2CCN(C)CC2)n1 (racemic) | 

Row | SMILES | Ki [1] [nM] | Ki [2] [nM] | Ki [3] [nM] | Ki (D(2) dopamine receptor) [nM] | further results
18 | CCC(Sc1cc(Cl)cc(Cl)c1)c1nc(N)nc(N2CCN(C)CC2)n1 (racemic) | 6040 | 178 | 103 | 362 | IC50 (Cholinesterase): 9800 nM
19 | CC(Sc1cc(Cl)cc(Cl)c1)c1nc(N)nc(N2CCN(C)CC2)n1 (racemic) | 6040 | 178 | 103 | 362 | IC50 (Acetylcholinesterase): 5370 nM
20 | CC(Sc1cc(Cl)ccc1Cl)c1nc(N)nc(N2CCN(C)CC2)n1 (racemic) | 61000 |  | 169 | 4780 | IC50 (Acetylcholinesterase): 9190 nM
21 | CCCCC(Sc1cccc(Cl)c1Cl)c1nc(N)nc(N2CCN(C)CC2)n1 (racemic) | 1800 | 179 | 169 |  | IC50 (Cholinesterase): 9950 nM
22 | CCC(Oc1cccc(Cl)c1Cl)c1nc(N)nc(N2CCNCC2)n1 (racemic) | 4510 | 118 | 179 |  | IC50 (Cholinesterase): 10000 nM
23 | CCC(Sc1cc(Cl)ccc1Cl)c1nc(N)nc(N2CCN(C)CC2)n1 (racemic) | 5140 | 551 |  | 1000 | IC50 (Cholinesterase): 12100 nM
24 | CCC(Sc1ccc(Cl)c(Cl)c1)c1nc(N)nc(N2CCN(C)CC2)n1 (racemic) | 5160 | 547 | 181 | 897 | IC50 (Acetylcholinesterase): 4570 nM; IC50 (Cholinesterase): 15000 nM
